In ChEMBL document CHEMBL1152112, “1-Phenyl-[2H]-tetrahydropyridazin-3-one, A-53612, a selective orally active 5-lipoxygenase inhibitor” (Bioorg Med Chem Lett, 1992):
Values belong to the compound of their own block, whether it stands above or below them.

Legend:
Rattus norvegicus [1] = organism: Rattus norvegicus; assay: Toxicity was assessed from activity to convert hemoglobin to methemoglobin in vitro at 400 uM in rat; T-toxic
[2] = molecular target: T1, Polyunsaturated fatty acid lipoxygenase ALOX12 (Homo sapiens, UniProt P18054); assay: Inhibitory activity against human platelet 12-lipoxygenase was evaluated
T1 sequence (P18054 whole entry): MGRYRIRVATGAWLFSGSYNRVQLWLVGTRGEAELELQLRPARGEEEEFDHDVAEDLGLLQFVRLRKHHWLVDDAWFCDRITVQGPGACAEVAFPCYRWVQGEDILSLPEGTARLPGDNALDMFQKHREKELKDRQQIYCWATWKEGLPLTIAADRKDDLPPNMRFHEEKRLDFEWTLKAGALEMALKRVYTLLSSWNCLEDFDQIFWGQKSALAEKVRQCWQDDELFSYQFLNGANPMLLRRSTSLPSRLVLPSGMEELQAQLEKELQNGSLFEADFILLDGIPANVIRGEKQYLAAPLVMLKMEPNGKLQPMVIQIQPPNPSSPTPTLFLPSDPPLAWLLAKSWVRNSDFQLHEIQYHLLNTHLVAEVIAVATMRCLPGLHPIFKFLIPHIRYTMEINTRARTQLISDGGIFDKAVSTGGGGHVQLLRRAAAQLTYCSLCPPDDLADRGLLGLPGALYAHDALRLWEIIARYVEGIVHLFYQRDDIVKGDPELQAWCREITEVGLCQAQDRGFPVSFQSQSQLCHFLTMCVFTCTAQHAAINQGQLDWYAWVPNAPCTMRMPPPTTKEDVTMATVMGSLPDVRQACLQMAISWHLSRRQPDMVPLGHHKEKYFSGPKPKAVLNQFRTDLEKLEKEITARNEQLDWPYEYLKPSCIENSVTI

Rattus norvegicus [3] = assay: The in vivo activity of compound was evaluated in a rat anaphylaxis model involving antigen-antibody stimulated leukotriene generation in the peritoneum by oral administration; assay type: functional
Cyclooxygenase = molecular target: T2, Cyclooxygenase (Rattus norvegicus, UniProt P35355+Q63921); assay: Inhibitory activity against intact rat PMNL, PGE-2 cyclooxygenase was evaluated; assay type: protein assay
T2 sequence (P35355 whole entry): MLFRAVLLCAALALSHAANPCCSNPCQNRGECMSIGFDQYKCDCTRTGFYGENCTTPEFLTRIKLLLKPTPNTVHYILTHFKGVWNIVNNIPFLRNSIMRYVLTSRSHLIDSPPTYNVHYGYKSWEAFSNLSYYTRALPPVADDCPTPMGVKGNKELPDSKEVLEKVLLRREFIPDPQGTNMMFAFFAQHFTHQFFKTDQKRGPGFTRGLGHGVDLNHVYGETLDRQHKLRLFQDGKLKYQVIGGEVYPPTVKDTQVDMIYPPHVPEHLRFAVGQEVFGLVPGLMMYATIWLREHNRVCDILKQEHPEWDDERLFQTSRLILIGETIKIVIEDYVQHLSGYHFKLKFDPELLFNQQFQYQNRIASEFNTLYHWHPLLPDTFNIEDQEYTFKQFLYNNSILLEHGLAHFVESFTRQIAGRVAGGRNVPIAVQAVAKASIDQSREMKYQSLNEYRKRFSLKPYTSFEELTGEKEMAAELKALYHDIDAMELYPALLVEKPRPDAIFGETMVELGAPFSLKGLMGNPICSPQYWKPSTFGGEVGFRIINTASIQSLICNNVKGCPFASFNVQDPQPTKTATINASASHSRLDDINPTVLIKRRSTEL
T2 sequence (Q63921 whole entry): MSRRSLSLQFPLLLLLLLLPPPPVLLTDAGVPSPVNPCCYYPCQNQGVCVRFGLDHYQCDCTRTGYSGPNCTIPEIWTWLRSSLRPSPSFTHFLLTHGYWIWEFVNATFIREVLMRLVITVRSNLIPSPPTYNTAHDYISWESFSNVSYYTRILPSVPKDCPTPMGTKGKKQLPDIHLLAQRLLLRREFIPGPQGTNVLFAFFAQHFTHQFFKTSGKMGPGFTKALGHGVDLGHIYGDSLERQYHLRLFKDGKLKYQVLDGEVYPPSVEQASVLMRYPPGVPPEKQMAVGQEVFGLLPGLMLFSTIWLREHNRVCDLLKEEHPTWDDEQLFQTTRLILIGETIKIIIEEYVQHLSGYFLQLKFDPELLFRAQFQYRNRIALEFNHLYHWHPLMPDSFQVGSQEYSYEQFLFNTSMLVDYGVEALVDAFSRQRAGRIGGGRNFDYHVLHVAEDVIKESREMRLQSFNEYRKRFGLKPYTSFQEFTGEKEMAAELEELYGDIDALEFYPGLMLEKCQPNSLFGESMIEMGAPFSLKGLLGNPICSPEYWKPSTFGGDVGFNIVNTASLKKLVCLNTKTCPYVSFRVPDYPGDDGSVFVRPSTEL

[4] = molecular target: T3, Polyunsaturated fatty acid lipoxygenase ALOX12 (Homo sapiens) (UniProt P18054); assay: Inhibitory activity against human platelet 12-lipoxygenase was evaluated at 100 uM
T3 sequence (whole entry): T1 sequence (P18054 whole entry)

[5] = molecular target: Cyclooxygenase (Rattus norvegicus) (UniProt P35355+Q63921); assay: Inhibitory activity against intact rat PMNL, PGE-2 cyclooxygenase was evaluated at 100 uM; assay type: protein assay
[6] = Compound was evaluated for Plasma levels upon oral administration at 30 mg/kg in Dog at maximum of 0.3 hours; assay type: ADME, organism-based, Canis lupus familiaris; parameters: dose 30 mg/kg, route oral
[7] = Compound was evaluated for Plasma levels upon oral administration at 30 mg/kg in Monkey at maximum of 1.0 hours; assay type: ADME, organism-based; parameters: dose 30 mg/kg, route oral; conditions: cercopithecidae, read-out: Concentration
[8] = Compound was evaluated for Plasma levels upon oral administration at 30 mg/kg in Monkey at maximum of 0.4 hours; assay type: ADME, organism-based; parameters: dose 30 mg/kg, route oral; conditions: cercopithecidae, read-out: Concentration
[9] = molecular target: T4, Polyunsaturated fatty acid 5-lipoxygenase (Rattus norvegicus, UniProt P12527); assay: Inhibitory activity against RBL broken cell-supematant 5-lipoxygenase was evaluated; assay type: cell-based
T4 sequence (P12527 whole entry): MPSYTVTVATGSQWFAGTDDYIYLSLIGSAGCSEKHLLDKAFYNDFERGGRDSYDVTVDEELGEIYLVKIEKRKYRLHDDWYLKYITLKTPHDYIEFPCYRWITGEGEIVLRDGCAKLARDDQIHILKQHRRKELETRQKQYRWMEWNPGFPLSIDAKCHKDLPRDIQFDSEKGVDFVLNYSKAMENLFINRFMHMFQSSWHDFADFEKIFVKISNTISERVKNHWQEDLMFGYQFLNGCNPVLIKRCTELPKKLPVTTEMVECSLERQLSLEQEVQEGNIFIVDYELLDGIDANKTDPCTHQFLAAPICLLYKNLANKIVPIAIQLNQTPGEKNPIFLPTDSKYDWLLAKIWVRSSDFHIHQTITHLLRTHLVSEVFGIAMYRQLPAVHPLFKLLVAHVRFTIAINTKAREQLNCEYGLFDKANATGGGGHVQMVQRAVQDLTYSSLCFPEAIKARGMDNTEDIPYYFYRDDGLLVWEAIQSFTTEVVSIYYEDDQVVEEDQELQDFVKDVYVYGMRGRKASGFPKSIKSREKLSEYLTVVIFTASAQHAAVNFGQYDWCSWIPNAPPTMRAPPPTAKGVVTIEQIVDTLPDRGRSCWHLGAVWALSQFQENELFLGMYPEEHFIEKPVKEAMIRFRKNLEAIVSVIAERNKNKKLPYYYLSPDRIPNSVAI

[10] = Half-life upon intravenous administration was tested; assay type: ADME, organism-based; conditions: in vivo
[11] = molecular target: T4, Polyunsaturated fatty acid 5-lipoxygenase; assay: Inhibitory activity against intact rat PMNL, LTB4 5-lipoxygenase was evaluated
[12] = molecular target: Cyclooxygenase (Homo sapiens) (UniProt P35354+P23219); assay: Inhibitory activity against human whole blood, TXB2 cyclooxygenase was evaluated at 100 uM; assay type: protein assay
[13] = molecular target: T5, Polyunsaturated fatty acid 5-lipoxygenase (Homo sapiens, UniProt P09917); assay: Inhibitory activity against intact human PMNL, LTB4 5-lipoxygenase was evaluated
T5 sequence (P09917 whole entry): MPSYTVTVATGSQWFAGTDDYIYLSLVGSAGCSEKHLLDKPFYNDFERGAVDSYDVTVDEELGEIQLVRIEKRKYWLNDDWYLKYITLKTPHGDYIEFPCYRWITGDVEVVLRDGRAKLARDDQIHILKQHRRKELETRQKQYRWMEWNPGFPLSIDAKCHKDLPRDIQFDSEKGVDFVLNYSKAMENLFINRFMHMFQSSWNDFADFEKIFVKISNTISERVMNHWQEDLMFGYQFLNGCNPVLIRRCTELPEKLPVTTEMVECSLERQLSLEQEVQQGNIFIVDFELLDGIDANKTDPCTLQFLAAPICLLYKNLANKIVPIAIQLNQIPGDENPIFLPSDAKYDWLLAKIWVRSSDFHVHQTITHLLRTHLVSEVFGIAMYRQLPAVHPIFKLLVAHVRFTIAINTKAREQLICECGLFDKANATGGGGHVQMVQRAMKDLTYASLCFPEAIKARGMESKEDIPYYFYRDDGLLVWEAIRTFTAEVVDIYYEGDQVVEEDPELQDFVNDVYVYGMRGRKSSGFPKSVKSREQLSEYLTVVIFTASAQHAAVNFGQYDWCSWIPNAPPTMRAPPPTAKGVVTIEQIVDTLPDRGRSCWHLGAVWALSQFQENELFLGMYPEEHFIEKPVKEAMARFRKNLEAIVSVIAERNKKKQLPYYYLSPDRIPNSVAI

Rattus norvegicus [14] = assay: In vivo activity of compound was evaluated in a rat anaphylaxis model involving antigen-antibody stimulated leukotriene generation in the peritoneum by oral administration; assay type: functional
[15] = molecular target: T5, Polyunsaturated fatty acid 5-lipoxygenase; assay: Inhibitory activity against human whole blood, LTB4 5-lipoxygenase was evaluated

SMILES: O=C(O)[C@H]1O[C@@H](OC2=NN(c3ccccc3)CCC2)[C@H](O)[C@@H](O)[C@@H]1O
Activity (Rattus norvegicus [1]): Toxic

SMILES: O=C1CCC(O)N(c2ccccc2)N1 (stereo unspecified)
Activity (Rattus norvegicus [1]): Toxic

IC50 [2]: 100 nM
SMILES: O=C1CCN(c2ccccc2)N1 [PHENIDONE]
ED50 (Rattus norvegicus [3]): 17 mg/kg

SMILES: NC1=NN(c2cccc(C(F)(F)F)c2)CC1 [BW-755C]
ED50 (Rattus norvegicus [3]): 36 mg/kg | IC50 (Cyclooxygenase): 800 nM | inhibition [4]: 5%

SMILES: O=C1CCCN(c2ccc(O[C@H]3O[C@@H](C(=O)O)[C@H](O)[C@@H](O)[C@@H]3O)cc2)N1
Activity (Rattus norvegicus [1]): Toxic

inhibition [5]: 3% | concentration at 0.3 h [6]: 124 µM | Cmax [7]: 90 µM | Cmax [8]: 22 µM | IC50 [9]: 4300 nM | half-life [10]: 1.1 h | inhibition [4]: 7% | IC50 [11]: 1200 nM | inhibition [12]: 13% | IC50 [13]: 1000 nM | IC50 [15]: 700 nM
SMILES: O=C1CCCN(c2ccccc2)N1
ED50 (Rattus norvegicus [14]): 6 mg/kg

SMILES: O=C1CCCN(c2ccc(O)cc2)N1
Activity (Rattus norvegicus [1]): Toxic
